Source: publication PMC10648204, “Discovery of Novel Biphenyl Carboxylic Acid Derivatives as Potent URAT1 Inhibitors” (Molecules, 2023)

How the values were obtained:
[1] = target: T1, human URAT1 (Homo sapiens, UniProt Q96S37); test: In vitro URAT1 inhibitory assay (14C-uric acid uptake in HEK293T cells expressing human URAT1); type: cell-based; conditions: HEK293-URAT1 cells, 14C-labeled uric acid substrate; for inhibition at 10 µM: HEK-293T, 10 μM compound, mean of three measurements
T1 construct: expressed in transfected cells; host or cells: HEK293T cells (ATCC CRL-11268)
T1 sequence (Q96S37 1-553): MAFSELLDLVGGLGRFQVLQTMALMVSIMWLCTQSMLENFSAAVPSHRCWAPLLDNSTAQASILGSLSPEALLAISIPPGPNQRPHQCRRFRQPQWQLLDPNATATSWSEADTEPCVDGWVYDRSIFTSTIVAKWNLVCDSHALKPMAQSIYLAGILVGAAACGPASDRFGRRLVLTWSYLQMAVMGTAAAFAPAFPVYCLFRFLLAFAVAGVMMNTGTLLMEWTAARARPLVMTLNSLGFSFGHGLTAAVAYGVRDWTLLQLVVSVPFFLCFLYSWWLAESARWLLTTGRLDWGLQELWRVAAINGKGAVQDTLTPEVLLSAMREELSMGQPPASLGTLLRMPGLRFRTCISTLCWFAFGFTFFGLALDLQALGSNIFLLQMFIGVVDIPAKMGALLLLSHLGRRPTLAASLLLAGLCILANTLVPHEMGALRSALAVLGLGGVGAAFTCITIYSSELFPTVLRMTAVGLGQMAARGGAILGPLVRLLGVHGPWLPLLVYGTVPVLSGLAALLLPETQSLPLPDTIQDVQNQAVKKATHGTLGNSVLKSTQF
Description: All the target compounds were evaluated for their URAT1 inhibitory activities in HEK293-URAT1 cells using ^14C-labeled uric acid as the substrate. […] The SAR exploration on series A compounds mainly focused on the hydrophobic component. […] For series B compounds, the ortho-substituted biphenyl carboxylic acid was initially kept, and various aromatic components were incorporated (B1–B25). […] Different substituents were introduced onto the 4-pyridyl (B15–B21).
In Vitro URAT1 Inhibitory Assay. A transient expression system of human URAT1 in HEK293T cells was constructed to measure ^14C-uric acid transport. […] The cell cryovials were removed from liquid nitrogen storage, and immediately placed on dry ice prior to thawing. […] The cell suspension was transferred into a 15 mL centrifuge tube, and 10 mL complete medium (DMEM +10% FBS +500 μg/mL G418 +1% P/S) was added. After centrifugation at 1000 rpm for 5 min, the supernatant was discarded, and cell precipitation was resuspended in 5 mL complete medium and transferred to a T75 culture flask. […] The uptake assay test could be carried out after cell culture adherent to the well in the 96-well plate. Then, the cells were washed with 200 µL/well of pre-warmed Cl^- free HBSS buffer, and all buffer was removed at the last washing. 50 µL/well of Cl^- free HBSS Buffer containing Uric acid [8-^14C] (2.5 μCi/mL) and samples were added to the cells, and incubated for 8 min. Then, the cells were washed three times with Cl^- free HBSS Buffer and all buffer was removed at the last washing. 50 µL/well of lysis buffer (100 mM NaOH) was added to the lysate cells and stirred at 900 rpm for 5 min. 150 µL/well MicroScint™-40 cocktail was added and agitated at 900 rpm for 5 min. Finally, the 96-plate was counted in a MicroBeta2 (PerkinElmer). The data were analyzed and IC50 values was calculated with GraphPad Prism 6 software.

IC50 [1] [nM]	inhibition at 10 µM [1] [%]	melting point [°C]	Compound
	56	150 to 153	O=C(O)c1ccccc1-c1ccccc1-c1nc(-c2ccc(F)cc2)no1 [Compound B1]
	39	173 to 175	O=C(O)c1ccccc1-c1ccccc1-c1nc(-c2ccc(C(F)(F)F)cc2)no1 [Compound B2]
	55	154 to 156	O=C(O)c1ccccc1-c1ccccc1-c1nc(-c2ccc(Cl)cc2)no1 [Compound B3]
	61	148 to 150	O=C(O)c1ccccc1-c1ccccc1-c1nc(-c2ccc(Br)cc2)no1 [Compound B4]
	68	154 to 157	COc1ccc(-c2noc(-c3ccccc3-c3ccccc3C(=O)O)n2)cc1 [Compound B5]
	45	151 to 153	Cc1ccc(-c2noc(-c3ccccc3-c3ccccc3C(=O)O)n2)cc1 [Compound B6]
	44	119 to 121	O=C(O)c1ccccc1-c1ccccc1-c1nc(-c2cccc(Br)c2)no1 [Compound B7]
	56	171 to 175	O=C(O)c1ccccc1-c1ccccc1-c1nc(-c2ccco2)no1 [Compound B8]
	68	140 to 142	O=C(O)c1ccccc1-c1ccccc1-c1nc(-c2cccs2)no1 [Compound B9]
	69	146 to 148	O=C(O)c1ccccc1-c1ccccc1-c1nc(-c2ccsc2)no1 [Compound B10]
	30	167 to 169	O=C(O)c1ccccc1-c1ccccc1-c1nc(-c2ccncn2)no1 [Compound B11]
	27	190 to 193	O=C(O)c1ccccc1-c1ccccc1-c1nc(-c2ccccn2)no1 [Compound B12]
	64	210 to 212	O=C(O)c1ccccc1-c1ccccc1-c1nc(-c2cccnc2)no1 [Compound B13]
1800	88	188 to 191	O=C(O)c1ccccc1-c1ccccc1-c1nc(-c2ccncc2)no1 [Compound B14]
250	97	165 to 168	O=C(O)c1ccccc1-c1ccccc1-c1nc(-c2ccnc(Br)c2)no1 [Compound B15]
270	97	145 to 147	O=C(O)c1ccccc1-c1ccccc1-c1nc(-c2ccnc(Cl)c2)no1 [Compound B16]
980	90	98 to 100	O=C(O)c1ccccc1-c1ccccc1-c1nc(-c2ccnc(F)c2)no1 [Compound B17]
280	97	228 to 230	Cc1cc(-c2noc(-c3ccccc3-c3ccccc3C(=O)O)n2)ccn1 [Compound B18]
420	96	154 to 156	COc1cc(-c2noc(-c3ccccc3-c3ccccc3C(=O)O)n2)ccn1 [Compound B19]
3100	76	214 to 216	Cc1cc(-c2noc(-c3ccccc3-c3ccccc3C(=O)O)n2)cc(C)n1 [Compound B20]
170	98		O=C(O)c1ccccc1-c1ccccc1-c1nc(-c2ccncc2Cl)no1 [Compound B21]
1100	89	258 to 259	O=C(O)c1ccccc1-c1ccccc1-c1nc(-c2ccnc3ccccc23)no1 [Compound B22]

Continued, compound first:

Compound	IC50 [1] [nM]	inhibition at 10 µM [1] [%]	melting point [°C]
O=C(O)c1ccccc1-c1ccccc1C(=O)N1CCCc2ccccc21 [Compound A1]	930	89	
O=C(O)c1ccccc1-c1ccccc1C(=O)N1CCOc2ccccc21 [Compound A2]	3900	75	174 to 176
O=C(O)c1ccccc1-c1ccccc1C(=O)N1CCSc2ccccc21 [Compound A3]		78	193 to 195
O=C(O)c1ccccc1-c1ccccc1C(=O)N1CCc2ccccc21 [Compound A4]	4700	77	195 to 196
O=C(O)c1ccccc1-c1ccccc1C(=O)N1CCCCc2ccccc21 [Compound A5]		72	215 to 217
O=C(O)c1ccccc1-c1ccccc1C(=O)N1CCCc2ccc(Br)cc21 [Compound A6]	1100	84	231 to 233
O=C(O)c1ccccc1-c1ccccc1C(=O)N1CCCc2cc(Br)ccc21 [Compound A7]	1100	94	261 to 262
O=C(O)c1ccccc1-c1ccccc1C(=O)N1CCCc2c(Br)cccc21 [Compound A8]	1600	90	201 to 202
O=C(O)c1ccccc1-c1ccccc1C(=O)N1CCCc2ccc(Cl)cc21 [Compound A9]	2200	85	233 to 234
COc1ccc2c(c1)CCCN2C(=O)c1ccccc1-c1ccccc1C(=O)O [Compound A10]	1800	88	198 to 200
Cc1ccc2c(c1)CCCN2C(=O)c1ccccc1-c1ccccc1C(=O)O [Compound A11]	2100	91	220 to 222
O=C(O)c1ccccc1-c1ccccc1C(=O)N1CCCc2ccc(-c3ccc(F)cc3)cc21 [Compound A12]		29	245 to 246
O=C(O)c1ccccc1-c1ccccc1C(=O)N1CCCc2ccc(-c3ccncc3)cc21 [Compound A13]	1500	86	266 to 268
COc1cccc(-c2ccc3c(c2)N(C(=O)c2ccccc2-c2ccccc2C(=O)O)CCC3)c1 [Compound A14]		58	177 to 179
O=C(O)c1ccccc1-c1ccccc1C(=O)N1CCc2ccccc2C1 [Compound A15]		25	171 to 173
CN(C(=O)c1ccccc1-c1ccccc1C(=O)O)c1ccccc1 [Compound A16]		13	169 to 172
O=C(O)c1ccccc1-c1ccccc1C(=O)NCc1ccncc1 [Compound A17]		< 10	118 to 120
O=C(O)c1ccccc1-c1ccccc1C(=O)Nc1ccncc1 [Compound A18]		11	190 to 191
O=C(O)c1ccccc1-c1ccccc1C(=O)Nc1ccnc2ccccc12 [Compound A19]		24	176 to 178
O=C(O)c1ccccc1-c1ccc(C(=O)N2CCCc3ccccc32)cc1 [Compound A20]		< 10	165 to 167
O=C(O)c1ccccc1-c1cccc(C(=O)N2CCCc3ccccc32)c1 [Compound A21]		< 10	100 to 102
